Earlier results as cited in paper PMC6819114, “Peptide-conjugated oligonucleotides evoke long-lasting myotonic dystrophy correction in patient-derived cells and mice” (The Journal of Clinical Investigation, 2019).

Text: Among strategies to improve delivery of ASOs in DM1 skeletal muscles, cell-penetrating peptide conjugates offer an attractive avenue ([22]–[24]). Indeed, systemic administration of advanced Pip6a peptides conjugated with splice-switch oligonucleotides has shown promising results in DMD mice by restoring a truncated but functional dystrophin ([25]). Pip6a is a cell-penetrating peptide composed of a hydrophobic core region flanked on each side by arginine-rich domains containing β-alanine and aminohexanoyl spacers. This peptide sequence has the ability to deliver associated cargoes across the pl ...

stability to serum proteolysis: stable
Substance: Ac-(RXRRBRRXRYQF LIRXRBRXRB)-CO OH [Pip6a, arginine-rich cell-penetrating peptide: hydrophobic core flanked by arginine-rich domains containing β-alanine and aminohexanoyl spacers]
